Source: patent US20090137678A1, “HIGH YIELD SYNTHESIS METHODS FOR PRODUCING ORGANIC SALTS OF STRONTIUM” (priority 2005, published 2009)

Columns and labels:
[1] = Heating of strontium malonate sesquihydrate to remove bound crystal water; assay type: physicochemical
Procedure: The crystal water was irreversibly detached from the malonate at temperatures above approx. 70° C. Thus, anhydrous strontium malonate was produced in high yield and high purity by boiling a solution of strontium malonate.

[2] = test system: new vertebral fracture; conditions: cited from earlier work

Structure (SMILES): O.O.O.O=C([O-])CC(=O)[O-].O=C([O-])CC(=O)[O-].[Sr+2].[Sr+2] [strontium malonate sesquihydrate]
- temperature above which crystal water is irreversibly detached [1]: > 70 °C

Structure (SMILES): N#Cc1c(N(CC(=O)[O-])CC(=O)[O-])sc(C(=O)[O-])c1CC(=O)[O-].[Sr+2].[Sr+2] [strontium ranelate]
- RR of new vertebral fracture vs placebo ([2]; 95% CI=0.48-0.73, P<0.001): 0.59
- serum cross-linked C terminal telopeptides of type I collagen (CTX, marker of bone resorption) ([2]; clinical studies, serum): decreased
- bone formation marker BSAP ([2]; clinical studies): increased
- patients who sustained a new vertebral fracture ([2]; strontium treated group, vs 222 in the placebo group, more than 7000 individuals): 139 patients
